Assay results from patent US7893077B2, “Bisaryl-sulfonamides” (Amgen Inc., priority 2004, dated 2011).

These compounds were tested against T1, PPARγ (Homo sapiens, UniProt P37231) (assay: PPARγ ligand binding assay utilizing [3H]-BRL 49653 as the radioligand (filtration)). Conditions: concentration required to reduce by 50% the specific binding of [3H]-BRL 49653.
T1 construct: made in house
T1 sequence (P37231 1-505): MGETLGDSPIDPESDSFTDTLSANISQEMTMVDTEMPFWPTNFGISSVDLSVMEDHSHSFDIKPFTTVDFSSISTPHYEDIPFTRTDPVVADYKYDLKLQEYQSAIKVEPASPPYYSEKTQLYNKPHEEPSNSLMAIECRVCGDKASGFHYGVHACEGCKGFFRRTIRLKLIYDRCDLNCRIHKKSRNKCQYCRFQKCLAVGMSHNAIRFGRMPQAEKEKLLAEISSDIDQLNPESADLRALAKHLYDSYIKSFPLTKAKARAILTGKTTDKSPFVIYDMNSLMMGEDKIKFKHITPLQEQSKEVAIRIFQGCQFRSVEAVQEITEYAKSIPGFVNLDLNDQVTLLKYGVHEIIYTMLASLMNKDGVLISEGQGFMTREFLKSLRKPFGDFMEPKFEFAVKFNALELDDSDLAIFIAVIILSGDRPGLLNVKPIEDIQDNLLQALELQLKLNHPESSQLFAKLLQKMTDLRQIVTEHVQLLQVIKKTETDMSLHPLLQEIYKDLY
Source text: The compounds of the present invention can be evaluated for modulation of the PPARγ receptor using assays such as those described in Jiang, et al., Nature 391:82-86 (1998), Ricote, et al., Nature 391:79-82 (1998) and Lehmann, et al., J. Biol. Chem. 270(12): 12953-12956 (1995). Alternatively, the compounds can be evaluated for their ability to displace radiolabeled BRL 49653 from a PPARγ-GST fusion protein as follows:
PPARγ-GST fusion protein (prepared according to standard procedures), [^3H]-BRL 49653 having 50 Ci/mmol specific activity, Polyfiltronics Unifilter 350 filtration plate and glutathione-Sepharose® beads (from Pharmacia: washed twice with 10× binding buffer in which BSA and DTI can be left out).
Binding buffer (10 mM Tris-HCl, pH 8.0, 50 mM KCl, 10 mM DTT, 0.02% BSA and 0.0 1% NP-40) is added in 80-μL amounts to the wells of the filtration plate. The test compound is then added in 10 μL of DMSO. The PPARγ-GST fusion protein and radiolabeled BRL compound are premixed in binding buffer containing 10 mM DTT and added in 10-μL amounts to the wells of the plate to provide final concentrations of 1 µg/well of PPARγ-GST fusion protein and 10 nM [^3H]-BRL 49653 compound. The plate is incubated for 15 min. Glutathione-agarose bead is added in 50 μL of binding buffer, and the plate is vigorously shaken for one hour. The plate is washed four times with 200 μL/well of binding buffer (without BSA and DTT). The bottom of the plate is sealed and 200 μL/well of scintillation cocktail is added. The top of the plate is then sealed and the radioactivity is determined.
IC50 values are defined as the concentration of test compounds required to reduce by 50% the specific binding of [^3H]-BRL 49653 and are represented by (+)<30 μM; (++)<10 μM; (+++)<1 μM.

**Q.** With Cc1cc(S(=O)(=O)Nc2nnc(Sc3ccc(S(=O)(=O)N4CCCCC4)cc3)cc2C)c(Cl)cc1Cl [Compound 139, 2,4-Dichloro-5-methyl-N -{4-methyl-6-[4-(piperidine-1-sulfonyl)-phenylsulfanyl]-pyridazin-3-yl}-benzenesulfonamide] as the compound, how does the IC50 read?
**A.** < 1000 nM

**Q.** How did the IC50 turn out when O=C(c1nc(NS(=O)(=O)c2ccc(C(F)(F)F)cc2Cl)ccc1Sc1ccc(S(=O)(=O)N2CCCC2)cc1)C1CC1 [Compound 98, 2-Chloro-N-{6-cyclopropanecarbonyl-5-[4-(pyrrolidine-1-sulfonyl)-phenylsulfanyl]-pyridin-2-yl}-4-trifluoromethyl-benzenesulfonamide] was run?
**A.** < 1000 nM

**Q.** Which IC50 does the source give for CCNS(=O)(=O)c1ccc(Sc2ccc(NS(=O)(=O)c3ccc(Cl)cc3Cl)nc2C(=O)C2CC2)cc1 [Compound 119, 2,4-Dichloro-N-[6-cyclopropanecarbonyl-5-(4-ethylsulfamoyl-phenylsulfanyl)-pyridin-2-yl]-benzenesulfonamide] here?
**A.** < 1000 nM

**Q.** For CNc1nc(NS(=O)(=O)c2ccc(Cl)cc2Cl)ncc1Sc1ccc2ccccc2c1 [Compound 25, 2,4-Dichloro-N-[4-methylamino-5-(naphthalen-2-ylsulfanyl) -pyrimidin-2-yl]-benzenesulfonamide], which IC50 is on record?
**A.** < 30000 nM

**Q.** How did the IC50 turn out when CCC(=O)c1nc(NS(=O)(=O)c2ccc(Cl)cc2Cl)ccc1Sc1ccc(S(=O)(=O)N2CCCCC2)cc1 [Compound 84, 2,4-Dichloro-N-{5-[4-(piperidine-1-sulfonyl)-phenylsulfanyl]-6-propionyl-pyridin-2-yl}-benzenesulfonamide] was run?
**A.** < 1000 nM

**Q.** Which IC50 does the source give for O=C(c1nc(NS(=O)(=O)c2ccc(Cl)cc2Cl)ccc1Sc1ccc(S(=O)(=O)N2CCCCC2)cc1)C1CC1 [Compound 82, 2,4-Dichloro-N-{6-cyclopropanecarbonyl-5-[4-(piperidine-1-sulfonyl)-phenylsulfanyl]-pyridin-2-yl}-benzenesulfonamide] here?
**A.** < 1000 nM

**Q.** CCCNc1nc(NS(=O)(=O)c2ccc(Cl)cc2Cl)ncc1Oc1ccc(Cl)c(Cl)c1 [Compound 27, 2,4-Dichloro-N-[5-(3,4-dichloro-phenoxy)-4-propylamino-pyrimidin-2-yl]-benzenesulfonamide] was tested. Which IC50 did it give?
**A.** < 10000 nM

**Q.** How did the IC50 turn out when Cc1nc(NS(=O)(=O)c2ccc(Cl)cc2)ncc1Oc1ccc(S(=O)(=O)N2CCOCC2)cc1 [Compound 56, 4-Chloro-N-{4-methyl-5-[4-(morpholine-4-sulfonyl) -phenoxy]-pyrimidin-2-yl}-benzenesulfonamide] was run?
**A.** < 30000 nM

**Q.** With CCCCc1cc(NS(=O)(=O)c2ccc(C(F)(F)F)cc2Cl)nnc1Sc1ccc(S(=O)(=O)N2CCOCC2)cc1 [Compound 130, 3-(2′-chloro-4′-trifluoromethyl)phenylsulfonylamino-5-n-butyl-6-(4″-N-morpholinesulfonyl)phenylthiopyridazine] as the compound, how does the IC50 read?
**A.** < 1000 nM

**Q.** How did the IC50 turn out when Cc1cc(S(=O)(=O)Nc2cc(C)c(Sc3ccc(S(=O)(=O)N4CCCCC4)cc3)nn2)c(Cl)cc1Cl [Compound 138, 2,4-Dichloro-5-methyl-N-{5-methyl-6-[4-(piperidine-1-sulfonyl)-phenylsulfanyl]-pyridazin-3-yl}-benzenesulfonamide] was run?
**A.** < 1000 nM

**Q.** CCCC(=O)c1nc(NS(=O)(=O)c2ccc(C(F)(F)F)cc2Cl)ccc1Sc1ccc(S(=O)(=O)N2CCCCC2)cc1 [Compound 81, N-{6-Butyryl-5-[4-(piperidine-1-sulfonyl)-phenylsulfanyl]-pyridin-2-yl}-2-chloro-4-trifluoromethyl-benzenesulfonamide] was tested. Which IC50 did it give?
**A.** < 1000 nM

**Q.** Which IC50 does the source give for CCCC(=O)c1nc(NS(=O)(=O)c2ccc(C(F)(F)F)cc2Cl)ccc1Sc1ccc(S(=O)(=O)NCC)cc1 [Compound 120, N-[6-Butyryl-5-(4-ethylsulfamoyl-phenylsulfanyl)-pyridin-2-yl]-2-chloro-4-trifluoromethyl-benzenesulfonamide] here?
**A.** < 1000 nM

**Q.** Which IC50 does the source give for Cc1nc(NS(=O)(=O)c2ccc(C(F)(F)F)cc2Cl)ncc1Sc1ccc(S(=O)(=O)N2CCOCC2)cc1 [Compound 53, 2-Chloro-N-{4-methyl-5-[4-(morpholine-4-sulfonyl) -phenylsulfanyl]-pyrimidin-2-yl}-4-trifluoromethyl-benzenesulfonamide] here?
**A.** < 10000 nM

**Q.** CCCCNc1nc(NS(=O)(=O)c2ccc(Cl)cc2Cl)ncc1Sc1ccc(S(=O)(=O)N2CCCCC2)cc1 [Compound 14, N-{4-Butylamino-5-[4-(piperidine-1-sulfonyl)-phenylsulfanyl]-pyrimidin-2-yl}-2,4-dichloro-benzenesulfonamide] was tested. Which IC50 did it give?
**A.** < 1000 nM

**Q.** CCCC(=O)c1nc(NS(=O)(=O)c2ccc(C(F)(F)F)cc2Cl)ccc1Sc1ccc(S(=O)(=O)C2CCOCC2)cc1 [Compound 101, N-{6-Butyryl-5-[4-(tetrahydro-pyran-4-sulfonyl)-phenylsulfanyl]-pyridin-2-yl}-2-chloro-4-trifluoromethyl-benzenesulfonamide] was tested. Which IC50 did it give?
**A.** < 1000 nM

**Q.** CCc1nc(NS(=O)(=O)c2ccc(Cl)cc2Cl)ccc1Sc1ccc(S(=O)(=O)N2CCOCC2)cc1 [Compound 104, 2,4-Dichloro-N-{6-ethyl-5-[4-(morpholine-4-sulfonyl) -phenylsulfanyl]-pyridin-2-yl}-benzenesulfonamide] was tested. Which IC50 did it give?
**A.** < 10000 nM

**Q.** Which IC50 does the source give for CCC(=O)c1nc(NS(=O)(=O)c2ccc(Cl)cc2Cl)ccc1Sc1ccc(S(=O)(=O)N2CCCC2)cc1 [Compound 96, 2,4-Dichloro-N-{6-propionyl-5-[4-(pyrrolidine-1-sulfonyl) -phenylsulfanyl]-pyridin-2-yl}-benzenesulfonamide] here?
**A.** < 1000 nM

**Q.** CCCOc1nc(NS(=O)(=O)c2ccc(Cl)cc2Cl)ccc1Sc1ccc(S(=O)(=O)N2CCCCC2)cc1 [Compound 111, 2,4-Dichloro-N-{5-[4-(piperidine-1-sulfonyl)-phenylsulfanyl]-6-propoxy-pyridin-2-yl}-benzenesulfonamide] was tested. Which IC50 did it give?
**A.** < 10000 nM

**Q.** For CCCNc1nc(NS(=O)(=O)c2ccc(Cl)cc2)ncc1Oc1ccc(S(=O)(=O)N2CCOCC2)cc1 [Compound 24, 4-Chloro-N-{5-[4-(morpholine-4-sulfonyl)-phenoxy]-4-propylamino-pyrimidin-2-yl}-benzenesulfonamide], which IC50 is on record?
**A.** < 10000 nM

**Q.** For O=C(O)c1nc(NS(=O)(=O)c2ccc(Cl)cc2Cl)ccc1Sc1ccc(S(=O)(=O)N2CCCCC2)cc1 [Compound 71, 6-(2,4-Dichloro-benzenesulfonylamino)-3-[4-(piperidine-1-sulfonyl)-phenylsulfanyl]-pyridine-2-carboxylic acid], which IC50 is on record?
**A.** < 10000 nM

**Q.** Which IC50 does the source give for Cc1nc(NS(=O)(=O)c2ccc(Cl)cc2Cl)ncc1Oc1ccc(Cl)c(Cl)c1 [Compound 60, 2,4-Dichloro-N-[5-(3,4-dichloro-phenoxy)-4-methyl-pyrimidin-2-yl]-benzenesulfonamide] here?
**A.** < 10000 nM

**Q.** How did the IC50 turn out when Cc1cc(NS(=O)(=O)c2ccc(C(F)(F)F)cc2Cl)ncc1Sc1ccc(S(=O)(=O)N2CCOCC2)cc1 [Compound 74, 2-Chloro-N-{4-methyl-5-[4-(morpholine-4-sulfonyl) -phenylsulfanyl]-pyridin-2-yl}-4-trifluoromethyl-benzenesulfonamide] was run?
**A.** < 1000 nM

**Q.** Which IC50 does the source give for CCCC(=O)c1nc(NS(=O)(=O)c2ccc(C(F)(F)F)cc2Cl)ccc1Sc1ccc(S(=O)(=O)C2CCCC2)cc1 [Compound 114, N-[6-Butyryl-5-(4-cyclopentanesulfonyl-phenylsulfanyl)-pyridin-2-yl]-2-chloro-4-trifluoromethyl-benzenesulfonamide] here?
**A.** < 1000 nM

**Q.** For CCCCc1cc(NS(=O)(=O)c2ccc(Cl)cc2Cl)nnc1Sc1ccc(S(=O)(=O)C2CCCC2)cc1 [Compound 133, 3-(2′,4′-dichloro)phenylsulfonylamino-5-n-butyl-6-(4″-cyclopentanesulfonyl)phenylthiopyridazine], which IC50 is on record?
**A.** < 1000 nM

**Q.** Which IC50 does the source give for CCCCc1nc(NS(=O)(=O)c2ccc(C(F)(F)F)cc2Cl)ccc1Sc1ccc(S(=O)(=O)N2CCOCC2)cc1 [Compound 125, N-{6-Butyl-5-[4-(morpholine-4-sulfonyl)-phenylsulfanyl]-pyridin-2-yl}-2-chloro-4-trifluoromethyl-benzenesulfonamide] here?
**A.** < 1000 nM

**Q.** How did the IC50 turn out when CCCCc1cc(NS(=O)(=O)c2ccc(Cl)cc2Cl)nnc1Sc1ccc(S(=O)(=O)N2CCOCC2)cc1 [Compound 131, 3-(2′,4′-dichloro)phenylsulfonylamino-5-n-butyl-6-(4″-N-morpholinesulfonyl)phenylthiopyridazine] was run?
**A.** < 1000 nM
